Measured values from patent US10857246B2, “Nuclear imaging and radiotherapeutics agents targeting carbonic anhydrase IX and uses thereof” (THE JOHNS HOPKINS UNIVERSITY, priority 2015, dated 2020).
“Also recorded” adds a separate entry of the source.

Columns and labels:
[1] = system: CAIX-expressing SK-RC-52 tumors; assay: Biodistribution in mice bearing SK-RC-52 xenografts; format: in vivo; settings: 740 kBq i.v.
Protocol: Animal experiments were performed in accordance with protocols approved by the Johns Hopkins Animal Care and Use Committee (ACUC). Six-week-old female NOD/SCID mice were purchased from the Animal Resource Core of the Sidney Kimmel Comprehensive Cancer Center of Johns Hopkins and were subcutaneously injected in the lower left flank or upper right flank with 1×10^6 SK-RC-52 cells in RPMI 1640 GlutaMAX™ media (Life Technologies, Frederick, Md.) supplemented with 1% fetal bovine serum (FBS). Mice were monitored for tumor size and used for SPECT/CT imaging when the size of the tumor reached 100 mm^3.
Mice bearing SK-RC-52 xenografts at lower left flank were injected intravenously with 740 kBq (20 μCi) of [^111In]XYIMSR-01, or [^177Lu]XYIMSR-01 in 200 μL of PBS. For competitive blocking, same tumor bearing mice were injected with 740 kBq (20 μCi) of [^111In]XYIMSR-01 and 200 nmole of 8 in 200 μL of PBS. At 1 h, 4 h, 8 h, 24 h and 48 h post-injection, mice were sacrificed by cervical dislocation and the blood was immediately collected by cardiac puncture. Heart, lungs, pancreas, spleen, fat, brain, muscle, small intestines, liver, stomach, kidney, urinary bladder, and tumor were collected. Each organ was weighed and the tissue radioactivity was measured with an automated gamma counter (1282 Compugamma CS, Pharmacia/LKBNuclear, Inc., Mt. Waverly, Vic. Australia). The percentage of injected dose per gram of tissue (% ID/g) was calculated by comparison with samples of a standard dilution of the initial dose. All measurements were corrected for radioactive decay.
Data were expressed as mean±standard deviation (SD). Prism software (GraphPAD, San Diego, Calif.) was used to determine statistical significance. Statistical significance was calculated using a paired t test. P-values <0.0001 were considered significant.
Mice bearing SK-RC-52 xenografts within the lower left flank were injected intravenously with 740 kBq (20 μCi) of [Al^18F]XYIMSR-04 in 200 μL of PBS. At specific 1 hour time point mentioned in the paper, mice (n=5) were sacrificed by cervical dislocation and the blood was immediately collected by cardiac puncture. Heart, lungs, pancreas, spleen, fat, brain, muscle, small intestines, liver, bone, stomach, kidney, urinary bladder, and tumor were collected. Each organ was weighed and the tissue radioactivity was measured with an automated gamma counter (1282 Compugamma CS, Pharmacia/LKBNuclear, Inc., Mt. Waverly, Vic. Australia). The percentage of injected dose per gram of tissue (% ID/g) was calculated by comparison with samples of a standard dilution of the initial dose. All measurements were corrected for radioactive decay. Data were expressed as mean±standard deviation (SD). Prism software (GraphPAD, San Diego, Calif.) was used to determine statistical significance. Statistical significance was calculated using a paired t test. P-values <0.0001 were considered significant.
Mice bearing SK-RC-52 xenografts within the upper right flank were injected intravenously with 740 kBq (20 μCi) of [^64Cu]XYIMSR-06 in 200 μL of PBS. For in vivo competition (binding specificity) studies, tumor-bearing mice were injected with 740 kBq (20 μCi) of [^64Cu]XYIMSR-06 and 200 nmole of 8 in 200 μL of PBS concurrently. At specific times after injection (1 h, 4 h, 8 h and 24 h), mice (n=5) were sacrificed by cervical dislocation with blood immediately collected by cardiac puncture. Heart, lungs, pancreas, spleen, fat, brain, muscle, small intestines, liver, stomach, kidney, urinary bladder, and tumor were also collected. Each organ was weighed and the tissue radioactivity was measured with an automated gamma counter (1282 Compugamma CS, Pharmacia/LKBNuclear, Inc., Mt. Waverly, Vic. Australia). The percentage of injected dose per gram of tissue (% ID/g) was calculated by comparison with samples of a standard dilution of the initial dose. All measurements were corrected for radioactive decay. Data were expressed as mean±standard deviation (SD). […]

[2] = system: SK-RC-52 xenografts; assay: Radio-therapy of mice bearing SK-RC-52 xenografts; format: in vivo; settings: 11.1 MBq and 18.5 MBq i.v., n=4
[3] = biological target: T1, CAIX (Homo sapiens, UniProt Q16790); assay: CAIX specific uptake in vitro; format: cell-based
T1 construct: host or cells: ccRCC tumours in patients

CC(CCC(=O)N[C@@H](CC(=O)N[C@@H](CC(=O)N[C@@H](CCCCn1cc(CCCC(=O)Nc2nnc(S(N)(=O)=O)s2)nn1)C(=O)NCCOCCOCCNC(=O)CN1CCN(CC(=O)[O-])CCN(CC(=O)[O-])CCN(CC(=O)[O-])CC1)C(=O)O)C(=O)O)(c1ccc(O)cc1)c1ccc(O)cc1.[177Lu+3] [[^177Lu]XYIMSR-01]
Biodistribution Bladder ([1]; 1 h post-injection): 26.55 % ID/g
Biodistribution Blood ([1]; 1 h post-injection): 0.55 % ID/g
Biodistribution Brain ([1]; 1 h post-injection): 0.49 % ID/g
Biodistribution Fat ([1]; 1 h post-injection): 1.07 % ID/g
Biodistribution Heart ([1]; 1 h post-injection): 3.59 % ID/g
Biodistribution Kidney ([1]; 1 h post-injection): 40.77 % ID/g
Biodistribution Liver ([1]; 1 h post-injection): 4.15 % ID/g
Biodistribution Lung ([1]; 1 h post-injection): 23.72 % ID/g
Biodistribution Muscle ([1]; 1 h post-injection): 1.42 % ID/g
Biodistribution Pancreas ([1]; 1 h post-injection): 2.03 % ID/g
Biodistribution Small intestine ([1]; 1 h post-injection): 6.11 % ID/g
Biodistribution Spleen ([1]; 1 h post-injection): 0.29 % ID/g
Biodistribution Stomach ([1]; 1 h post-injection): 12.20 % ID/g
Biodistribution Tumor ([1]; 1 h post-injection): 26.91 % ID/g
Tumor/Blood ratio ([1]; 1 h post-injection): 47.9
Tumor/Kidney ratio ([1]; 1 h post-injection): 0.6
Tumor/Muscle ratio ([1]; 1 h post-injection): 18.8
Biodistribution Bladder ([1]; 4 h post-injection): 6.60 % ID/g
Biodistribution Blood ([1]; 4 h post-injection): 0.18 % ID/g
Biodistribution Brain ([1]; 4 h post-injection): 0.33 % ID/g
Biodistribution Fat ([1]; 4 h post-injection): 0.56 % ID/g
Biodistribution Heart ([1]; 4 h post-injection): 1.52 % ID/g
Biodistribution Kidney ([1]; 4 h post-injection): 19.17 % ID/g
Biodistribution Liver ([1]; 4 h post-injection): 1.79 % ID/g
Biodistribution Lung ([1]; 4 h post-injection): 10.35 % ID/g
Biodistribution Muscle ([1]; 4 h post-injection): 0.65 % ID/g
Biodistribution Pancreas ([1]; 4 h post-injection): 0.99 % ID/g
Biodistribution Small intestine ([1]; 4 h post-injection): 2.64 % ID/g
Biodistribution Spleen ([1]; 4 h post-injection): 0.15 % ID/g
Biodistribution Stomach ([1]; 4 h post-injection): 6.06 % ID/g
Biodistribution Tumor ([1]; 4 h post-injection): 26.28 % ID/g
Tumor/Blood ratio ([1]; 4 h post-injection): 150.3
Tumor/Kidney ratio ([1]; 4 h post-injection): 1.4
Tumor/Muscle ratio ([1]; 4 h post-injection): 43.7
Biodistribution Bladder ([1]; 8 h post-injection): 6.00 % ID/g
Biodistribution Blood ([1]; 8 h post-injection): 0.16 % ID/g
Biodistribution Brain ([1]; 8 h post-injection): 0.44 % ID/g
Biodistribution Fat ([1]; 8 h post-injection): 0.46 % ID/g
Biodistribution Heart ([1]; 8 h post-injection): 1.49 % ID/g
Biodistribution Kidney ([1]; 8 h post-injection): 18.99 % ID/g
Biodistribution Liver ([1]; 8 h post-injection): 1.87 % ID/g
Biodistribution Lung ([1]; 8 h post-injection): 8.87 % ID/g
Biodistribution Muscle ([1]; 8 h post-injection): 0.47 % ID/g
Biodistribution Pancreas ([1]; 8 h post-injection): 1.03 % ID/g
Biodistribution Small intestine ([1]; 8 h post-injection): 3.67 % ID/g
Biodistribution Spleen ([1]; 8 h post-injection): 0.29 % ID/g
Biodistribution Stomach ([1]; 8 h post-injection): 6.15 % ID/g
Biodistribution Tumor ([1]; 8 h post-injection): 27.48 % ID/g
Tumor/Blood ratio ([1]; 8 h post-injection): 178.6
Tumor/Kidney ratio ([1]; 8 h post-injection): 1.5
Tumor/Muscle ratio ([1]; 8 h post-injection): 65.0
Biodistribution Bladder ([1]; 24 h + block (200 nmole of 8)): 0.73 % ID/g
Biodistribution Blood ([1]; 24 h + block (200 nmole of 8)): 0.04 % ID/g
Biodistribution Brain ([1]; 24 h + block (200 nmole of 8)): 0.04 % ID/g
Biodistribution Fat ([1]; 24 h + block (200 nmole of 8)): 0.03 % ID/g
Biodistribution Heart ([1]; 24 h + block (200 nmole of 8)): 0.08 % ID/g
Biodistribution Kidney ([1]; 24 h + block (200 nmole of 8)): 1.54 % ID/g
Biodistribution Liver ([1]; 24 h + block (200 nmole of 8)): 0.46 % ID/g
Biodistribution Lung ([1]; 24 h + block (200 nmole of 8)): 0.73 % ID/g
Biodistribution Muscle ([1]; 24 h + block (200 nmole of 8)): 0.03 % ID/g
Biodistribution Pancreas ([1]; 24 h + block (200 nmole of 8)): 0.05 % ID/g
Biodistribution Small intestine ([1]; 24 h + block (200 nmole of 8)): 0.18 % ID/g
Biodistribution Spleen ([1]; 24 h + block (200 nmole of 8)): 0.38 % ID/g
Biodistribution Stomach ([1]; 24 h + block (200 nmole of 8)): 0.21 % ID/g
Biodistribution Tumor ([1]; 24 h + block (200 nmole of 8)): 1.70 % ID/g
Tumor/Blood ratio ([1]; 24 h + block (200 nmole of 8)): 42.0
Tumor/Kidney ratio ([1]; 24 h + block (200 nmole of 8)): 1.4
Tumor/Muscle ratio ([1]; 24 h + block (200 nmole of 8)): 58.6
Biodistribution Bladder ([1]; 24 h post-injection): 1.29 % ID/g
Biodistribution Blood ([1]; 24 h post-injection): 0.02 % ID/g
Biodistribution Brain ([1]; 24 h post-injection): 0.28 % ID/g
Biodistribution Fat ([1]; 24 h post-injection): 0.05 % ID/g
Biodistribution Heart ([1]; 24 h post-injection): 0.28 % ID/g
Biodistribution Kidney ([1]; 24 h post-injection): 3.11 % ID/g
Biodistribution Liver ([1]; 24 h post-injection): 0.47 % ID/g
Biodistribution Lung ([1]; 24 h post-injection): 1.48 % ID/g
Biodistribution Muscle ([1]; 24 h post-injection): 0.10 % ID/g
Biodistribution Pancreas ([1]; 24 h post-injection): 0.16 % ID/g
Biodistribution Small intestine ([1]; 24 h post-injection): 0.96 % ID/g
Biodistribution Spleen ([1]; 24 h post-injection): 0.20 % ID/g
Biodistribution Stomach ([1]; 24 h post-injection): 1.02 % ID/g
Biodistribution Tumor ([1]; 24 h post-injection): 12.51 % ID/g
Biodistribution Bladder ([1]; 48 h + block (200 nmole of 8)): 0.28 % ID/g
Biodistribution Blood ([1]; 48 h + block (200 nmole of 8)): 0.04 % ID/g
Biodistribution Brain ([1]; 48 h + block (200 nmole of 8)): 0.02 % ID/g
Biodistribution Fat ([1]; 48 h + block (200 nmole of 8)): 0.02 % ID/g
Biodistribution Heart ([1]; 48 h + block (200 nmole of 8)): 0.04 % ID/g
Biodistribution Kidney ([1]; 48 h + block (200 nmole of 8)): 0.39 % ID/g
Biodistribution Liver ([1]; 48 h + block (200 nmole of 8)): 0.23 % ID/g
Biodistribution Lung ([1]; 48 h + block (200 nmole of 8)): 0.18 % ID/g
Biodistribution Muscle ([1]; 48 h + block (200 nmole of 8)): 0.01 % ID/g
Biodistribution Pancreas ([1]; 48 h + block (200 nmole of 8)): 0.02 % ID/g
Biodistribution Small intestine ([1]; 48 h + block (200 nmole of 8)): 0.05 % ID/g
Biodistribution Spleen ([1]; 48 h + block (200 nmole of 8)): 0.15 % ID/g
Biodistribution Stomach ([1]; 48 h + block (200 nmole of 8)): 0.09 % ID/g
Biodistribution Tumor ([1]; 48 h + block (200 nmole of 8)): 0.65 % ID/g
Tumor/Blood ratio ([1]; 48 h + block (200 nmole of 8)): 42.7
Tumor/Kidney ratio ([1]; 48 h + block (200 nmole of 8)): 1.7
Tumor/Muscle ratio ([1]; 48 h + block (200 nmole of 8)): 62.5
Biodistribution Bladder ([1]; 48 h post-injection): 0.20 % ID/g
Biodistribution Blood ([1]; 48 h post-injection): 0.04 % ID/g
Biodistribution Brain ([1]; 48 h post-injection): 0.17 % ID/g
Biodistribution Fat ([1]; 48 h post-injection): 0.03 % ID/g
Biodistribution Heart ([1]; 48 h post-injection): 0.12 % ID/g
Biodistribution Kidney ([1]; 48 h post-injection): 0.76 % ID/g
Biodistribution Liver ([1]; 48 h post-injection): 0.19 % ID/g
Biodistribution Lung ([1]; 48 h post-injection): 0.90 % ID/g
Biodistribution Muscle ([1]; 48 h post-injection): 0.04 % ID/g
Biodistribution Pancreas ([1]; 48 h post-injection): 0.06 % ID/g
Biodistribution Small intestine ([1]; 48 h post-injection): 0.20 % ID/g
Biodistribution Spleen ([1]; 48 h post-injection): 0.13 % ID/g
Biodistribution Stomach ([1]; 48 h post-injection): 0.35 % ID/g
Biodistribution Tumor ([1]; 48 h post-injection): 5.82 % ID/g
Tumor/Blood ratio ([1]; 48 h post-injection): 200.2
Tumor/Kidney ratio ([1]; 48 h post-injection): 7.1
Tumor/Muscle ratio ([1]; 48 h post-injection): 141.5
Tumor growth compared with control non-treated mice [2]: Delays in tumor growth; also recorded: significant therapeutic effect in controlling tumor growth
Uptake in vitro [3]: CAIX specific uptake
